Consider one compound from US9387213B2, “Small molecules inhibiting oncoprotein Myc” (Health Research, Inc., priority 2012, dated 2016).

In one data set the test system is HO-null cells. Kind of data set: Secondary filter for Myc specificity: cell growth inhibition, methylene blue staining. Format: cell-based. As to conditions: Rattus norvegicus, 72 h, read-out: ID50 HO-null. How it is done:
FIG. 4 illustrates the myc specificity of tested compounds. Rat1a cells expressing c-myc, L-myc or N-myc or lacking any Myc (null) were treated for 72 h with a range of hit compound concentrations. The cells were then fixed and stained with methylene blue and the percentage of cells in the presence of compound compared to DMSO only control was calculated.
Validated hits were divided into classes when two or more compounds shared significant structural similarity. The ID50 for N-myc transactivation (the inhibitory dose resulting in 50% decrease in luciferase activity) for each hit was calculated from the dose-response N-myc responsive reporter assay. Compounds within each class were ranked by their ID50 for N-myc transactivation and the best compounds within each class were chosen for further studies. In addition, the best of the structurally unique compounds were also analyzed. A total of 46 hits were passed through a secondary filter designed to determine the specificity of the hits for Myc proteins. For this filter, we used a panel of cell lines derived from Rat1a cells (kindly provided by Michael Cole, Dartmouth University): HO-null-c-Myc deficient cells due to homologous recombination that express neither N-myc nor L-myc HO-c-Myc, HO-L-myc and HO-N-myc derived by retroviral transduction of the corresponding Myc genes into HO-null cells. Since each cell line expresses only a single Myc or no Myc family members, we could identify compounds that act through Myc family members as well as which Myc family members. […] The 18 Myc-specific compounds identified during the screening and filtering process are presented in Table 1 and represent distinct classes of molecules, including pyrazoles (e.g., N147A7, N47E10, N147G5), tetrazoles (e.g., N77A7) and 3-bromophenol (e.g., N4G6).

Data set [1] deals with SK-Mel-103 melanoma cells. How it is done: One week following inoculation, treatment with 50 mg/kg N77A7 or Captisol vehicle control commenced. Treatment occurred daily by ip administration. Tumors were measured biweekly. Tumor volume was calculated using the formula tumor volume=L×W^2/2, where W=shortest dimension.
Our Myc inhibitors were tested for their effect against a panel of tumor cell lines, including neuroblastoma and melanoma that represent cell lines with aberrant N-myc and c-Myc expression, respectively. This panel of cell lines included the human neuroblastoma lines BE(2)C, IMR32 and NBL-WN (N-myc amplified), NBL-S (N-myc overexpression), SH-SY5Y (significant N- and c-Myc expression) and SH-EP (low levels c-Myc only) as well as two melanoma cell lines (#3 and #10-c-Myc overexpression) and normal melanocytes).

The next data set can be described thus: Solubility remark. Format: physicochemical. The settings on record: prepared in methylcellulose.
In another data set the test system is melanoma cells (Mel-9). Kind of data set: Stable-isotope tracing, 13C labeling of central metabolites. Format: cell-based. As to conditions: 13C-glucose, 24 h, compared to control.
Data set [2] concerns Myc+ fibroblasts (HO15.19 Myc-null cells with C-MYC re-expression). Kind of data set: Stable-isotope tracing, 13C labeling and uptake/secretion of metabolites. The settings on record: 13C-glucose, 24 hrs, Myc+ cells treated. Format: cell-based, rat. How it is done:
Experiments were perform and data were analyzed as described in FIG. 14. Cellular measurements are mean±SD of 3 samples.

Protocol for melanoma cells (Mel-9): Cells were grown in 6-well plates, and the medium was replaced for the final 24 h of culture with the MEM medium described previously (Scott et al., JBC 286, 42626-34, 2011), containing 50% ^13C-labeled [U-^13C6] glucose or 50% ^13C-labeled [U-^13C5] glutamine] […] Metabolites were extracted and GC-MS analysis and calculation of ^13C labeling were performed as described (Scott et al., 2011). Metabolites were quantified on the basis of fragment ion intensities and standard curves derived from mixtures of standards run concurrently with samples, using the program Metaquant (B. Bunk et al., Bioinformatics 22, 2962-2965, 2006). On the graphs, the 13C labeling percentage is shown as average of to separate experiments (with error bars). Samples from cells treated by antimycon (“N77”), anti-MYC shRNA (“Myc”), nonspecific shRNA (“NS”) and the control treated only by DMSO are shown bars with distinct patterns.

As for `CCN(CC)c1ccc(/C=N/NC(=O)Cn2nnc(-c3ccccc3)n2)c(O)c1` [Compound N77A7], the IC50 in the data set on HO-null cells was found to be 3.64 µM. Besides, in data set [1] (mouse, in vivo), the observable toxicity result was “absence of any observable toxicity”. Besides, the tumor growth entry in data set [1] (preliminary, ½ maximum tolerated dose, melanoma xenograft, FIG. 7) is reported as “reduced tumor growth compared to the vehicle control”. In the data set “Solubility remark”, the solubility entry was “poorly soluble”. Besides, the “labeling via glucose of serine, glycine, pyruvate, lactate, TCA-cycle metabolites” value with melanoma cells (Mel-9) is “lower”. Moreover, the metabolic phenotype entry in data set [2] was “metabolic phenotype similar to Myc-null cells”.
